The values below come from article PMC11547576, “Identification of a New Promising BAG3 Modulator Featuring the Imidazopyridine Scaffold” (Molecules, 2024).

A word on the Kd: it is a measure of binding affinity in units of concentration.

The subject of one test is caspase 3. The test is described as follows: Western blot of caspase 3 expression and cleavage. Format: cell-based, human. The following applies: HeLa cells, 72 h, 50, 30 and 20 µM. On the procedure: Furthermore, we investigated the expressions of caspases, key mediators of programmed cell death, in HeLa cells treated with compound 10 at the same concentrations used in the previous assays. […] To further confirm the pro-apoptotic mechanism induced by compound 10, Western blotting was performed to measure the expression and cleavage of caspase 3 [38, 39].
The HeLa cell line was seeded in 60 mm culture dishes (20 × 104) and treated with compound 10 (50, 30, 20 μM) for 72 h. After treatments, the cells were washed twice, detached with a scraper, and centrifuged for 10 min (400× g, 4 °C) to remove debris. Total proteins were extracted by lysis buffer (20 mM Tris-HCl pH 7.5, 150 mM NaCl, 1 mM Na2EDTA, 1 mM EGTA, 2% NP-40, 1% sodium deoxycholate, 1× protease, and phosphatase inhibitor cocktail) for 30 min. […] Protein concentration was determined by the Bradford assay using bovine serum albumin as standard. […]
After washes in PBS/Tween-20 0.1% the appropriate anti-rabbit or anti-mouse (1:5000, Pierce, Thermo Fisher Scientific) peroxidase-linked secondary antibody was added for 1 h at room temperature. Antigen–antibody complexes were detected through enhanced chemiluminescence using LAS 4000 (GE Healthcare, Chicago, IL, USA) and a densitometry analysis of the autoradiographs was performed by using the ImageJ program, version 1.47 [38, 39]. […]
Background: In western blotting, separated proteins are transferred to a membrane and probed.

Another test has as its target T1, BAG3-BD (Homo sapiens, UniProt O95817).
T1 construct: the BAG3 domain (BAG3-BD) was procured from ARETA International S.r.l; purchased ARETA International S.r.l; (Gerenzano, Italy)
T1 sequence (O95817 421-498 limits assumed): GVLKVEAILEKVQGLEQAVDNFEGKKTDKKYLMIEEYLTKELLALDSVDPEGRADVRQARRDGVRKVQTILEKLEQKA
The test is described as follows: SPR assay on BAG domain of BAG3 (BAG3-BD). Format: binding. The note with it: Biacore T200, 0 to 100 µM, 25 °C, 1:1 interaction model, read-out: BAG DOMAIN KD (µM) ± SD. On the procedure: In this study, we employed SPR experiments to evaluate the interactions between synthesized compounds (1–14) and both the full-length BAG3 protein and its BAG domain. Only the compounds that successfully bound to the full-length BAG3 protein were tested for their interaction with the BAG domain. Protein immobilization was achieved using the amide coupling method, and the compounds were tested at ten different concentrations, ranging from 0 to 100 µM. A known binder of BAG3-BD, LK4 ((Z)-ethyl 2-(5-(3,4-dihydroxybenzylidene)-2,4-dioxothiazolidin-3yl)acetate), was used as a positive control. […] Compound 14 also bound the target but with slightly higher KD values, still within the micromolar range. The three identified compounds were further investigated to understand whether this binding induced an effect on BAG3 protein functions. The KD values reported in Table 1 for the known inhibitor LK4 differ from those in previous studies due to the use of a newer-generation instrument for the SPR experiments. The earlier experiments utilized the Biacore 3000, whereas the current study employed the Biacore T200. While ligand binding was confirmed in both sets of experiments, the slightly different KD values are attributed to the enhanced sensitivity of the Biacore T200.
Recombinant human BAG3 protein (Bcl2-associated athanogene 3) was sourced from Novus Biologicals (Littleton, CO, USA), while the BAG3 domain (BAG3-BD) was procured from ARETA International S.r.l. (Gerenzano, Italy). We utilized (Z)-ethyl 2-(5-(3,4-dihydroxybenzylidene)-2,4-dioxothiazolidin-3-yl)acetate (LK4), a known BAG3 inhibitor previously identified by our group. Surface Plasmon Resonance (SPR) spectroscopy was employed to assess the affinity of synthesized molecules for BAG3 and BAG-BD using a Biacore T200 optical biosensor equipped with CM5 sensor chips (Cytiva, Marlborough, MA, USA). BAG3 and BAG-BD were immobilized on the CM5 sensor chip using standard amine-coupling protocols. BAG3 protein (0.067 μg/μL in 10 mM CH3COONa, pH 4.5) was immobilized at a flow rate of 10 μL/min, resulting in a density of 14 kRU. The BAG3 domain (0.38 μg/μL in 10 mM CH3COONa, pH 4.5) was immobilized under similar conditions, achieving a density of 4 kRU. […]
Compounds 1–14 and LK4 were dissolved to 10 mM in 100% DMSO and then diluted 1:20 (v/v) in PBS-P buffer (0.2 M phosphate buffer, 27 mM KCl, 1.37 M NaCl, 0.5% surfactant P20) to achieve a final DMSO concentration of 5.0%. […] Changes in mass, reflected as resonance units (RU), were recorded to determine binding responses. KD values were calculated using Biaevaluation software 3.2 by globally fitting the double-referenced association and dissociation data to a 1:1 interaction model. […]

`CC(C)Nc1c(-c2ccccc2Br)nc2ccc(Cl)cn12` [Compound 10, 2-(2-bromophenyl)-6-chloro-N-isopropylimidazo[1,2-a]pyridin-3-amine]: in the test with caspase 3, the “expression of procaspase 3” value was “increased expression of procaspase 3” and the “levels of cleaved caspase 3” value is given as “elevated levels of cleaved caspase 3 in a dose-dependent manner”. Besides, the dissociation constant Kd at BAG3-BD came out at 15.7 ± 1.44 µM.
